Measured values: US20150141439A1, “PHARMACEUTICAL COMPOSITION FOR THE PREVENTION OR TREATMENT OF BRAIN TUMOR OR TEMODAL RESISTANT GLIOBLASTOMA MULTIFORM COMPRISING AZATHIOPRINE AS AN ACTIVE INGREDIENT” (KOREA RESEARCH INSTITUTE OF CHEMICAL TECHNOLOGY, priority 2012, published 2015)

Key:
HaCat Human keratinocyte = assay: Secondary cytotoxicity test, HaCat; assay type: cell-based
Protocol: (§1) Particularly, the cell growth inhibition effect was measured by WST-1 cell proliferation assay [http://www.roche-applied-science.com/PROD_INF/MANUALS/CELL_MAN/apoptosis—087—088.pdf]. The compound of formula 1 was loaded in a 384-well cell culture plate. Three types of glioblastoma multiform cell lines [proneural subtype (559T), mesenchymal subtype (592T), and classical subtype (626T)], normal human astrocytes (NHA), a lung cancer cell line (A549), and a glioblastoma multiform cell line (U87MG) were distributed in the plate at the density of 4.5×10^3 cells/well, and the medium was filled up to make 50 μl per well. At this time, the concentration of the solvent DMSO for the compound of formula 1 was no more than 0.2%. After culturing the cells for 72 hours, 5 mg/ml of WST-1 reagent was added by 5 μl per well, followed by reaction for 3˜4 hours. Then OD450 was measured to investigate the effect of the compound of formula 1 on cell proliferation.
(§2) To investigate the cell growth inhibition effect of the compound of formula 1 of the present invention (azathioprine) in many different cell lines, secondary cytotoxicity test was performed with the cell lines listed in Table 5 by the same manner as described in Example 1.

[1] = system: cells of lung cancer with brain metastasis transplanted in the mouse brain; assay: Animal test with cells of lung cancer with brain metastasis, survival; assay type: in vivo; conditions: azathioprine 2 mg/kg oral every day after day 11, Temodal (TMZ) 65 mg/kg oral 5 days from day 17
Protocol: The cells of lung cancer with brain metastasis were obtained from Samsung Hospital (Seoul) and cultured. The cultured cells (2×10^5/5 μl) were transplanted in the mouse brain. 17 days later, Temodal administration (65 mg/kg, oral administration) began, which continued for 5 days. The compound of formula 1 of the present invention (azathioprine) was co-treated to the mouse by oral-administration at the dose of 2 mg/kg every day after 11 days from the transplantation of the cells of lung cancer with brain metastasis in the mouse brain. Then, the average survival period was investigated.

[2] = system: MCF-7 Human breast adenocarcinoma; assay: Secondary cytotoxicity test, MCF-7; assay type: cell-based; conditions: MCF7
Protocol: as §1, §2

[3] = system: normal human astrocytes (NHA); conditions: azathioprine 10 μM, 24 hours later, before and after the treatment
[4] = system: GBM #6 glioblastoma multiform patient originated cells; assay: Neurosphere formation inhibition, GBM #6; assay type: cell-based, human; design: key: S: strong effect; I: intermediate effect; R: rare effect; conditions: GBM #6, type B (classical), Azathioprine 1 μM, duration 23 day
Protocol: (§3) Particularly, to investigate neurosphere formation, glioblastoma multiform cells were cultured for a certain time and the cells were distributed again in culture vessels, followed by additional culture. Then, the number of newly generated neurospheres was measured. First, the glioblastoma multiform patient originated cells were sub-cultured, which were distributed in a 96-well plate (20, 50, and 200 cells in 50 μl of culture medium/well). 2, 6, and 20 μM of the compound of formula 1 (azathioprine) and the compound of Comparative Example 1 (Temodal) were treated thereto by 50 μl per well to make the final concentrations of 1, 3, and 10 μM. Then, the compound of formula 1 (azathioprine) and the compound of Comparative Example 1 (Temodal) were added to 50 μl of cell culture medium with the same concentrations as the above once a week, which were then cultured for 7˜23 days. When neurosphere was formed at least 50 μm in the control group not treated with the compound, the number of neurospheres in each well was counted to compare the neurosphere formation before and after the treatment of the compound of formula 1 (azathioprine) and the compound of Comparative Example 1 (Temodal).
The glioblastoma multiform cells used in this experiment were classified into 4 types, which are type A, type B, type C, and type D, according to the gene expression pattern. […]

[5] = system: GBM #5 glioblastoma multiform patient originated cells; assay: Neurosphere formation inhibition, GBM #5; assay type: cell-based, human; design: key: S: strong effect; I: intermediate effect; R: rare effect; conditions: GBM #5, type B (classical), Azathioprine 1 μM, duration 21 day
Protocol: as §3, with “2, 6, and 20 μM of the compound of formula 1 (azathioprine) and the compound of Comparative Example 1 (Temodal) were treated thereto by 50 μl per well to make the final concentrations of 1, 3, and 10 μM.” left out
The glioblastoma multiform cells used in this experiment were classified into 4 types, which are type A, type B, type C, and type D, according to the gene expression pattern. Methylation of MGMT (O6-me-G methyltransferase), the DNA repair protein, was confirmed in each cell line. […]

[6] = system: proneural subtype glioblastoma multiform (559T); assay: cells; conditions: Homo sapiens, 72 h
Protocol: as §1

[7] = system: mesenchymal subtype glioblastoma multiform (592T); assay: cells; conditions: Homo sapiens, 72 h
Protocol: as §1

[8] = system: lung cancer cell line (A549); assay: cells; conditions: Homo sapiens, A549, 72 h
Protocol: as §1

[9] = system: classical subtype glioblastoma multiform (626T); assay: cells; conditions: Homo sapiens, 72 h
Protocol: as §1

[10] = system: PC3 Human prostate adenocarcinoma; assay: Secondary cytotoxicity test, PC3; assay type: cell-based; conditions: PC-3
Protocol: as §1, §2

[11] = system: HepG2 Human hepatocarcinoma; assay: Secondary cytotoxicity test, HepG2; assay type: cell-based
Protocol: as §1, §2

[12] = read-out: Cell Growth Inhibition (% Inhibition)

Structure (SMILES): Cn1cnc([N+](=O)[O-])c1Sc1ncnc2nc[nH]c12 [Azathioprine, 6-(1-methyl-4-nitro-1H-imidazol-5-ylthio)-7H-purine]
- IC50 (HaCat Human keratinocyte): 6.3 µM
- Average Survival Period [1]: 63 days
- Survival Period Extension Rate (%) [1]: 59-70%
- IC50 [2]: 2.6 µM
- concentrations of azathioprine metabolites (TGMP, MeTIMP, MeTGMP, TIMP) in cell lysate [3]: not much changed
- inhibition of neurosphere formation [4]: S
- inhibition of neurosphere formation [5]: S
- GI50 [6]: 1.3 µM
- inhibition at 0.032 µM [6, 12]: -4.2%
- inhibition at 0.1 µM [6, 12]: 2.6%
- inhibition at 0.32 µM [6, 12]: 9.7%
- inhibition at 1 µM [6, 12]: 35.9%
- inhibition at 3.2 µM [6, 12]: 65.8%
- inhibition at 10 µM [6, 12]: 78.6%
- GI50 [7]: 5.5 µM
- inhibition at 0.032 µM [7, 12]: -3.9%
- inhibition at 0.1 µM [7, 12]: 2.1%
- inhibition at 0.32 µM [7, 12]: 8.3%
- inhibition at 1 µM [7, 12]: 22.6%
- inhibition at 3.2 µM [7, 12]: 46%
- inhibition at 10 µM [7, 12]: 57.2%
- GI50 [8]: > 10 µM
- inhibition at 0.032 µM [8, 12]: 6.7%
- inhibition at 0.1 µM [8, 12]: 15.3%
- inhibition at 0.32 µM [8, 12]: 21.5%
- inhibition at 1 µM [8, 12]: 24.2%
- inhibition at 3.2 µM [8, 12]: 26%
- inhibition at 10 µM [8, 12]: 32%
- GI50 [9]: 3.1 µM
- inhibition at 0.032 µM [9, 12]: 20.2%
- inhibition at 0.1 µM [9, 12]: 34.9%
- inhibition at 0.32 µM [9, 12]: 30%
- inhibition at 1 µM [9, 12]: 42.5%
- inhibition at 3.2 µM [9, 12]: 61.8%
- inhibition at 10 µM [9, 12]: 76.3%
- IC50 [10]: 6.7 µM
- IC50 [11]: > 10 µM
